Source: publication PMC8494430, “Development of a fluorogenic ADAMTS-7 substrate” (Journal of Enzyme Inhibition and Medicinal Chemistry, 2021)

Legend:
ADAMTS-7 = target: T1, ADAMTS-7 (Homo sapiens, UniProt Q9UKP4); assay: LTBP4S-A cleavage assay (SDS-PAGE, densitometry); format: biochemical
T1 construct: the recombinant construct ADAMTS7-T8, which lacks the C-terminal PLAC domain; made in house
T1 sequence (Q9UKP4 237-1631 limits assumed): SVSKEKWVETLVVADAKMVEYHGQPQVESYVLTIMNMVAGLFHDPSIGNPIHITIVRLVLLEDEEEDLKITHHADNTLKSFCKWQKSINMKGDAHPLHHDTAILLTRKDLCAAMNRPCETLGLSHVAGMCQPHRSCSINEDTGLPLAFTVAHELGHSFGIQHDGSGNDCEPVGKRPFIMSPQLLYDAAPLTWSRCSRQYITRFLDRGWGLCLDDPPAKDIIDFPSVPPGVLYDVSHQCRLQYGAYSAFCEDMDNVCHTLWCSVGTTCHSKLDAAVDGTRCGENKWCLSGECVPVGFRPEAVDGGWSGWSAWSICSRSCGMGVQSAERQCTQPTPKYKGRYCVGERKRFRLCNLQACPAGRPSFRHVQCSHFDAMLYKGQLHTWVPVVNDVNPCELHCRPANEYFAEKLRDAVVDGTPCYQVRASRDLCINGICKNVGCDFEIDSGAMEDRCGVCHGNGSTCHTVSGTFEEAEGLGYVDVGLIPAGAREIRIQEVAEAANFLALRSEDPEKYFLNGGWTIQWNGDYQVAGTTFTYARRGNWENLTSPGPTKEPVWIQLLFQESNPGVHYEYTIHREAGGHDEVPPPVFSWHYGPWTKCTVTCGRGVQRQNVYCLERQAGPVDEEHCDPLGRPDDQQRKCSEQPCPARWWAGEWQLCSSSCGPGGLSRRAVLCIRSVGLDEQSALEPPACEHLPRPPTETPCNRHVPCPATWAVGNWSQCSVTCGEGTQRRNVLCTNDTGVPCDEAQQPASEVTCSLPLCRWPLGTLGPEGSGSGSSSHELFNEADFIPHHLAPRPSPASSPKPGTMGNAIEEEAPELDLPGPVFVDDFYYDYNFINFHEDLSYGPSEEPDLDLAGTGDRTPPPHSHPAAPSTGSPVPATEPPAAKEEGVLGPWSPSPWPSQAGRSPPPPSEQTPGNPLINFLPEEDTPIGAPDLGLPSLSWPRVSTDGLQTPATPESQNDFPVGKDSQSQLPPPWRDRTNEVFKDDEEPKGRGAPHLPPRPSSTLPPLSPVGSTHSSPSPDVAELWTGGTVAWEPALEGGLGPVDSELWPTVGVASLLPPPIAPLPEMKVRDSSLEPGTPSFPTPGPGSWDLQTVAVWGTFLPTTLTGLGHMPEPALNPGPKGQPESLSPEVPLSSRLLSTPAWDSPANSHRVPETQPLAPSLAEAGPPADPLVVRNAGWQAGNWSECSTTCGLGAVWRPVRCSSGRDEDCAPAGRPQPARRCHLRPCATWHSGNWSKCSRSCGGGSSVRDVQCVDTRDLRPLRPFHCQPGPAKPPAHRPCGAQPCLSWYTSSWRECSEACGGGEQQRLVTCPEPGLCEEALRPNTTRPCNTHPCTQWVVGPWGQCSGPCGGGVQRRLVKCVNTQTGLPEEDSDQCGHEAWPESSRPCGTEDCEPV
Protocol: LTBP4S-A cleavage assays were performed as before[8] with small modifications. Here, ADAMTS-7 –T8 (19 nM) was pre-incubated either in the absence or presence of the indicated inhibitors for 2 h at 37 °C before addition of […] (5.6 µM). After 17 h, proteolysis was stopped by addition of Bolt^TM LDS Sample Buffer, 5% β-mercaptoethanol, and heating to 95 °C. Samples were frozen at […] before use. For SDS-PAGE analysis, 12% Bis-Tris Plus Gels (ThermoFisher) were used and stained for 6 h with Imperial protein stain (ThermoFisher). Gels were destained overnight in pure water at room temperature on an orbital shaker and scanned for analysis of LTBP4S-A cleavage bands. To accurately determine cleavage inhibition from each inhibitor, inhibition was quantified by densitometry of the bands corresponding to cleavage products using ImageJ software. The data were plotted using GraphPad Prism 7.0.

[1] = Appearance of solution upon dilution of peptide in assay buffer (solubility); format: physicochemical; settings: 10 mM DMSO stock diluted in assay buffer
Protocol: The cleavage sites ^193Arg↓Ala^194 and ^195Glu↓Ala^196 were chosen to design the FRET substrate ATS7FP0 (Table 1). This peptide covers residues Ala^188-Ala^198 in LTBP4S and contains a FAM/TAMRA fluorophore/quencher pair. The quencher is covalently linked to the ε amino group of an extra C-terminal lysine residue. Stock solutions were routinely prepared at 10 mM in DMSO and stored at −80 °C. […] This was most likely due to the high content in hydrophobic amino acids of this peptide, which added to the hydrophobicity of the fluorophore/quencher pair. Nevertheless, ATS7FP0 generated fluorescence upon cleavage by ADAMTS-7 (Figure 2(A)). With the aim to improve both solubility and cleavage rate by ADAMTS-7, seven additional peptides were designed using the sequence of ATS7FP0 as a starting point. The N-terminal alanine residue present in ATS7FP0 was removed to generate peptide ATS7FP7 with a reduced aliphatic index (Table 1). […] To assess the effect of a P4′ proline residue on the cleavage rate, peptide ATS7FP7 was modified to generate ATS7FP8. […] Since we also determined that ADAMTS-7 prefers arginine in P1 (Figure 1(D)), we mutated one alanine residue in the parental sequence into arginine with the aim to improve both cleavage rate and hydrophilicity, thus generating peptide ATS7FP3. […]

Row | Molecule | IC50 (ADAMTS-7; ADAMTS-7 19 nM, 2 h preincubation, LTBP4S-A 5.6 μM, 17 h, read-out: IC50 (LTBP4S-A substrate)) [nM] | increase of ADAMTS-7 inhibition relative to JG23 (ADAMTS-7; against LTBP4S-A) [fold] | appearance of solution upon dilution in the assay buffer (solubility) [1]
1 | O=C(NCCC[C@@H](NS(=O)(=O)c1ccc(OCc2ccc(F)cc2Cl)cc1)C(=O)NO)c1ccccc1 [EDV33] | 112 ± 14 | 5.1 | –
2 | Glu-Ala-Ala-Ala-Arg↓Ala-Glu↓Ala-Ala-Ala-Lys [ATS7FP7] | – | – | homogeneous
